Data on two molecules can be found in US20260345584A1, “METHODS AND PHARMACEUTICAL COMPOSITIONS FOR TREATING CHEMOTHERAPY-INDUCED PERIPHERAL NEUROPATHY WITH EG5 INHIBITORS” (UNIVERSITY OF MIAMI, priority 2023, published 2026).

For test [1], the system named is microtubule detyrosination in keratinocytes. The test can be described thus: GluTub immunofluorescence of detyrosinated microtubules in zebrafish caudal fin keratinocytes. It counts as in vivo. On the procedure: The stock solution was divided into 20-30 μl aliquots and stored at −20 °C until use (maximal 6 months). Immediately prior to use, paclitaxel was diluted in Ringer's solution and added to dechorionated larval zebrafish. The larval fish were placed individually or in small groups into wells of a 12-well plate containing the treatment solutions. The control group was 0.05% DMSO. Plates were incubated at 28.5 °C and protected from light. Treatment lengths are indicated in the Drawings, Description of the Drawings, and Examples where appropriate. […] EMD534085, Eg5 inhibitor (MedChemExpress, Cat. No. HY-15000) was diluted in 100% DMSO to make a 10 mM stock solution and stored at −20 °C. […] The solutions were exchanged every 48 hr.
Larval fish were transferred into […] glass vials and fixed in 4% paraformaldehyde (PFA)/1× Phosphate-buffered saline (PBS) for 1.5 hr at room temperature, with gentle rocking. Following a 5-minute incubation in 1×PBS+0.1% Tween-20 (PBST), zebrafish were permeabilized in 1×PBS+0.1% Triton X-100 for 10-30 min. Larval fish were transferred into 2 ml reaction tubes and incubated in blocking buffer (1×PBST+5% BSA) for 30 min at room temperature, with rocking. Larval fish were further incubated overnight in antibody solution (Millipore Sigma, Cat. No. AB3201, 1:300 rabbit anti-GluTub; Sigma, Cat No. T6793, 1:500 mouse anti-acetylated tubulin) in blocking buffer at 4 °C, on a rotator. The next morning, larval fish were transferred into 6-well plates and washed 4×15 min in 1×PBST at room temperature, with rocking. This was followed by incubation in secondary antibody (goat anti-rabbit Cy5, Abcam, Cat. No. ab97077; goat anti-mouse Cy3, Abcam, Cat. No. ab97035) and 1:10,000 Hoechst 33342 (ThermoFisher Scientific, Cat. No. 62249, 20 mM solution) in blocking buffer for 1 hr at room temperature, with rocking. Fish were covered to avoid bleaching. […]
Fluorescence intensities were measured using the Imaris MATLAB plugin or Fiji. A line was typically placed over the region of interest and the fluorescence automatically quantified. The values were normalized to nuclear (Hoechst33342) fluorescence intensities within the same fish and region to obtain an intensity ratio.
Stabilized microtubules undergo a modification whereby the terminal tyrosine residue was removed, leading to detyrosination (dMT) (Roll-Mecak et al., 2020, Developmental cell 54: 7-20), which was associated with particularly long-term stabilized microtubule populations (Khawaja et al., 1988, The Journal of cell biology 106: 141-149). Exposure of the penultimate glutamate residue can be detected using a GluTub antibody. […]

The test system of a further test is skin gene expression. The experiment in a line: Mouse skin RNAseq. It counts as in vivo. The conditions noted are these: mice, 2 mg/kg paclitaxel i.p. x4. Here is the method: The RNAseq data set was published in Cirrincione et al. (2022, Data 7: 72). Following differential gene expression analysis (FDR<0.01) comparing paclitaxel-treated to vehicle control animals (n=4), identified genes were queried in gProfiler and grouped by their molecular function. Using normalized gene counts, Kif genes were analyzed for their expression and plotted over time. […] Kif11 was queried in STRING to identify associated networks and interacting proteins compared to the RNAseq data set and differentially expressed genes were graphed in Prism 9.
Molecular mechanisms underlying paclitaxel-induced microtubule fasciculation were then investigated. […] Peripheral neuropathy was correlated with these times points using von Frey behavioral testing, which determined that peak neuropathy was present at day 7 (D7). This identified several biological categories during peak neuropathy with the largest clusters being implicated in extracellular matrix organization (e.g. “ECM”, “collagen-containing ECM”, “collagen trimer”) and cell cycle regulation (e.g. “outer kinetochore”, “kinesin complex”, condensed chromosome, centromeric region”, “mitotic spindle”, “microtubules”), consistent with our findings in zebrafish. Interactome analysis using STRING (Szklarczyk et al., 2021, Nucl. Acids Res 49: D605-D612) to predict protein association networks further identified major clusters involved in cell cycle regulation, which contained various kinesins, microtubule and nucleus regulators, as well as one cluster annotated as “disulfide bond”, consistent with a role for oxidative signal activation (Leonard et al., 2011, Current opinion in chemical biology 15: 88-102) (shown in FIG. 3D).

Consider `CN(C)CCNC(=O)NC[C@H]1CC[C@@H]2[C@H](O1)c1cc(C(F)(F)F)ccc1N[C@H]2c1ccccc1` [EMD534085], for which the “microtubule detyrosination with Eg5 inhibition” value in test [1] (EMD534085-treated animals, 96 hr) is given as “not modified when animals were treated with EMD534085”. For the same molecule, the “effect on microtubule fasciculation and detyrosination” value in test [1] (EMD534085 co-administered with 100 nM and 22 μM paclitaxel) was “rescued microtubule fasciculation but not detyrosination”.
As to `CC(=O)O[C@H]1C(=O)[C@@]2(C)[C@H]([C@H](OC(=O)c3ccccc3)[C@]3(O)C[C@H](OC(=O)[C@H](O)[C@@H](NC(=O)c4ccccc4)c4ccccc4)C(C)=C1C3(C)C)[C@]1(OC(C)=O)CO[C@@H]1C[C@@H]2O` [paclitaxel], in the test on skin gene expression, the “expression of Cdk1, Aurka, Aurkb and Kif11” value was “upregulated during peak neuropathy”; the “expression of Cyba and Cybb” value is “upregulated at D23”; the “expression of checkpoint regulators Plk1, Cdc20, Ndc80, Bub1c, Dlgap5” value is given as “co-upregulation from D7 onward”.
